# Data published in ChEMBL document CHEMBL1201862, “PubChem BioAssay data set” (2004).
# The source made the active and inactive calls.
# Columns and labels:
# [1] = microbe, parasite or virus in culture; type: functional; conditions: Mycobacterium tuberculosis
# [2] = M. tuberculosis growth inhibition, HTS (AID 449762); type: functional
# [3] = biological target: DNA damage-inducible transcript 3 protein (Mus musculus, UniProt P35639); type: functional, Cricetulus griseus
# [4] = biological target: T1, Histone-lysine N-methyltransferase NSD2 (Homo sapiens, UniProt O96028); type: biochemical
# T1 sequence (O96028 whole entry): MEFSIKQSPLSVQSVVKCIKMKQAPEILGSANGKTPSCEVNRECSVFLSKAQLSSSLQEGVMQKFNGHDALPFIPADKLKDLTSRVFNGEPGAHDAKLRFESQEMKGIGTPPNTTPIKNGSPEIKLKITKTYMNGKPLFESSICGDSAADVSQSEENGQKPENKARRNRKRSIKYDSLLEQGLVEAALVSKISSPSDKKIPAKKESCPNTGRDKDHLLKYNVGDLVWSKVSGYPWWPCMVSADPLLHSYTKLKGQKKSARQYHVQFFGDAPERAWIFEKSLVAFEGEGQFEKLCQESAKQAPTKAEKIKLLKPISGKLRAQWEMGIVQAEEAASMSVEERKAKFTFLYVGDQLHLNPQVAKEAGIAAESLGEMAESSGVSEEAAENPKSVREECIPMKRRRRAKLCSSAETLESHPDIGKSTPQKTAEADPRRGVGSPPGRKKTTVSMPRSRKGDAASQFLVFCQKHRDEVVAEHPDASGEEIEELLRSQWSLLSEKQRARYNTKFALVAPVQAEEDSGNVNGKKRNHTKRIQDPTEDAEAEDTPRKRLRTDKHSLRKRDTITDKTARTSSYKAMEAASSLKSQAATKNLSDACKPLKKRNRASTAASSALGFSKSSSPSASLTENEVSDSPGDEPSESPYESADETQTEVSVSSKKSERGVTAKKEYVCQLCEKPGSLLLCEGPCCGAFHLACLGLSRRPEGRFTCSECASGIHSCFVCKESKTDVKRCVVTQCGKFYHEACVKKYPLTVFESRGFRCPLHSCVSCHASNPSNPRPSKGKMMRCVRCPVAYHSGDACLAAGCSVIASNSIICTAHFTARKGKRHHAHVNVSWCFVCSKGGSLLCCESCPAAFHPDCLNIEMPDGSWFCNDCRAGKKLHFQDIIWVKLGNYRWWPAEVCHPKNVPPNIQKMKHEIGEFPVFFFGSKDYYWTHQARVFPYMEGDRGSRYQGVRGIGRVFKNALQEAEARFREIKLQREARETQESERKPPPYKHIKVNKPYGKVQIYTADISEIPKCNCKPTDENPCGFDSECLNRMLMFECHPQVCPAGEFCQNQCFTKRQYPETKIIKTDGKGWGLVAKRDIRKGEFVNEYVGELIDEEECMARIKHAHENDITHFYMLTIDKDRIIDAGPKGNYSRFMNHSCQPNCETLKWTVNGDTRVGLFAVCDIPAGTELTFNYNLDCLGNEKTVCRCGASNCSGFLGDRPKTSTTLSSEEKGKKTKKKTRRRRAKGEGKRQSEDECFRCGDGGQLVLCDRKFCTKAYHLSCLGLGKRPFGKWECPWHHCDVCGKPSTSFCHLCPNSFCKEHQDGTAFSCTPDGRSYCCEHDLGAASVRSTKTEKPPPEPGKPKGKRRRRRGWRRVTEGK
# [5] = biological target: Bifunctional protein GlmU (Mycobacterium tuberculosis, UniProt P9WMN3); assay: Inhibitors of Mycobacterial Glucosamine-1-phosphate acetyl transferase (GlmU). Secondary screen.; parameters: species or system Mycobacterium tuberculosis H37Rv
# [6] = biological target: T2, Caspase-6 (Homo sapiens, UniProt P55212); assay: inhibition of CASP6 peptide cleavage – biochemical, VEID-R110 fluorescence, cherry-pick, dose response (AID 720632)
# T2 sequence (P55212 whole entry): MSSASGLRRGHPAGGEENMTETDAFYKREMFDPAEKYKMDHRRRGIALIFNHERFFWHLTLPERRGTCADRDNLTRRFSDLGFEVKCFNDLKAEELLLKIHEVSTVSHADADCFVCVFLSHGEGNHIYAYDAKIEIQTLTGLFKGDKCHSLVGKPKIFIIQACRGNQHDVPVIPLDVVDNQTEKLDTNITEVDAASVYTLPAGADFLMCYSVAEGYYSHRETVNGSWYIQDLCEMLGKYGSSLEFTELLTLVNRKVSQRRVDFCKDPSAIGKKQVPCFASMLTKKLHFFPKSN
# [7] = biological target: Large T antigen (Simian virus 40, UniProt P03070); type: functional, Betapolyomavirus macacae;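 note: Confirmatory-stage PubChem screen for compounds that inhibit SV40 T antigen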
# [8] = biological target: T3, Tyrosine-protein phosphatase non-receptor type 7 (Homo sapiens, UniProt P35236); assay: HePTP tyrosine phosphatase activity blockers – biochemical, absorbance, leukemia target, primary screen (AID 521); type: functional
# T3 sequence (P35236 whole entry): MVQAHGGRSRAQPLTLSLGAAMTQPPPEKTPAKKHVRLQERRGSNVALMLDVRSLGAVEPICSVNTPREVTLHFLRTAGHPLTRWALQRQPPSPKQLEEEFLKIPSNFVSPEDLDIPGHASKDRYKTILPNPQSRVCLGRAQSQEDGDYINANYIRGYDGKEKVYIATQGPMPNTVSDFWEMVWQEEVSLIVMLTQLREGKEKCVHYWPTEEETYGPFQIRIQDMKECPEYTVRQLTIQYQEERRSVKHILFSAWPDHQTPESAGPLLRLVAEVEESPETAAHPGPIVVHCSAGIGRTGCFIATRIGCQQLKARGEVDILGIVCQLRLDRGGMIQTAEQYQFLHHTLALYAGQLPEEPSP
# [9] = biological target: T4, Low molecular weight phosphotyrosine protein phosphatase (Homo sapiens, UniProt P24666); assay: inhibition of LMPTP-A enzymatic activity – biochemical, OMFP substrate, fluorescence intensity, set 2, dose response (AID 743307); type: functional
# T4 sequence (P24666 whole entry): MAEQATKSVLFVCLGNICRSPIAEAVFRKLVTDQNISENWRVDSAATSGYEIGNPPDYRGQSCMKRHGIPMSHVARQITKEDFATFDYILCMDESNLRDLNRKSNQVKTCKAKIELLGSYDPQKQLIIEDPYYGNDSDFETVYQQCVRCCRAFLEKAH
# [10] = biological target: T4, Low molecular weight phosphotyrosine protein phosphatase; assay: inhibition of human LMPTP enzyme activity – biochemical, absorbance, pNPP substrate, LMPTP-A isoform, set 2, orthogonal assay, dose response (AID 743308); type: functional
# [11] = CCR5-tropic HIV-1 fusion blockers – cell-based, CCR5-tropic Env, dose response (AID 2279); type: functional
# [12] = biological target: FAD-linked sulfhydryl oxidase ALR (Homo sapiens, UniProt P55789); assay: ALR-catalysed DTT oxidation blockers – biochemical, H2O2 detection, luminescence, cherry-pick, dose response (AID 493248)
# [13] = biological target: Heat shock protein HSP 90-alpha (Homo sapiens, UniProt P07900); assay: Luminescence-based dose response biochemical high throughput screening assay for inhibitors of the Heat Shock Protein 90 (HSP90). [Related pubchem assays: 1831 (Summary AID.), 1846 (Confirmation screen.), 1789 (Primary screen.)]
# FAD-linked sulfhydryl oxidase ALR, sequence (P55789 whole entry): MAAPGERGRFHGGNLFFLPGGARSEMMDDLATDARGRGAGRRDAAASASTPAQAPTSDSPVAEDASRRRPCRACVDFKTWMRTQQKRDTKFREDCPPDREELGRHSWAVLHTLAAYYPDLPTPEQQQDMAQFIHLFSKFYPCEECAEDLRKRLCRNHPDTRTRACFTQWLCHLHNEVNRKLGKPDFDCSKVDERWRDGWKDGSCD
# DNA damage-inducible transcript 3 protein, sequence (P35639 whole entry): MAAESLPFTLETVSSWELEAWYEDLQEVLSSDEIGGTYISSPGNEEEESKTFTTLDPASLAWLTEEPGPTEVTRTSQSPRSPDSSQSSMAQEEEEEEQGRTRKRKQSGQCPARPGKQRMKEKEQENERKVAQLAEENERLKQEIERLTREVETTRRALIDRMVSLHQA
# Large T antigen, sequence (P03070 whole entry): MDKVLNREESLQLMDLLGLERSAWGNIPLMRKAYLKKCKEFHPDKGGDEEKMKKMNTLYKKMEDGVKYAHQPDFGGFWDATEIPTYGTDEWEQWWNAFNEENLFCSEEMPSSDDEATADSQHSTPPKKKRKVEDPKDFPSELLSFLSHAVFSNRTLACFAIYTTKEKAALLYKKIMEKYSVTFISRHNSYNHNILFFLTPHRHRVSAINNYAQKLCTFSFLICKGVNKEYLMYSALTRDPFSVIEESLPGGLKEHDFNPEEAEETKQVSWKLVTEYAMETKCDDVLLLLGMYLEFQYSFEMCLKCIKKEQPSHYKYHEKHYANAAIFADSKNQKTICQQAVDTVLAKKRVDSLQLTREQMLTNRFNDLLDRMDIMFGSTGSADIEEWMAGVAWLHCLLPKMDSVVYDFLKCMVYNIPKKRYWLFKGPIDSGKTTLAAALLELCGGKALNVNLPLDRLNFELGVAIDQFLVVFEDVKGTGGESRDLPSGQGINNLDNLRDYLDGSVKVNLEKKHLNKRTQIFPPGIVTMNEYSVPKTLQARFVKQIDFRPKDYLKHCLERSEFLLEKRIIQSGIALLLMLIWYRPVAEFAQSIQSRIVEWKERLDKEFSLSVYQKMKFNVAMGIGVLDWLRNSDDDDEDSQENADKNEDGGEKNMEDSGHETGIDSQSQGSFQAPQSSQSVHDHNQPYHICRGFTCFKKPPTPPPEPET
# Bifunctional protein GlmU, sequence (P9WMN3 whole entry): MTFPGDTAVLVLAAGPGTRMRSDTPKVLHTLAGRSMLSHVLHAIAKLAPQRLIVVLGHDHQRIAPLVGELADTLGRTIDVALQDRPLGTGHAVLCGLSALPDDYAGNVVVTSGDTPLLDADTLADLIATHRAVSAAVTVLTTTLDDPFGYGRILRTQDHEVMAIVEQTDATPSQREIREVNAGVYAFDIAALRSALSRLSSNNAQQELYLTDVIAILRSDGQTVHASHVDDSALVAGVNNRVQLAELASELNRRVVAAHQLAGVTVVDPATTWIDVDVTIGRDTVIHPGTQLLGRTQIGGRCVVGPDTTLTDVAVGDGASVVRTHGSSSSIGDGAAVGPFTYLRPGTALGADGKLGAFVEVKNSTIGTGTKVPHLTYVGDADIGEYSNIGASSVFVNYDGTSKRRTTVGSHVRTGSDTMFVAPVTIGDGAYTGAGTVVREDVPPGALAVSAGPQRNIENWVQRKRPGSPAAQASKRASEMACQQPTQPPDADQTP
structure (smiles),measurement,setting,value
CCOc1ccc(/C=C/C2=Cc3c(sc(NC(=O)CSc4n[nH]c(N)n4)c3C#N)C(C)(C)C2)cc1,CC50,[1],8.74 µM (active)
same,IC50,[2],> 100 µM (active)
same,Absolute IC50 (CHOP),[3],< 10 µM
Cc1c(Br)c(=O)oc2c(Br)c(O)c(O)cc12,AC50,[4],10.3 µM (active)
same,IC50,[5],55.4 µM (active)
same,AC50,[6],19.5 µM (active)
same,IC50,[7],41.2 µM (active)
CCOC(=O)COc1ccc(C2NC(C(=O)O)CS2)cc1 (stereo not drawn),IC50,[8],> 100 µM (not active)
c1ccc(-c2nc(NCCCN3CCOCC3)c3ccccc3n2)cc1,IC50,[9],22.5 µM (inactive)
same,IC50,[10],48.8 µM (inactive)
COc1cc(/C=N/Nc2ccc(Cl)c(C(=O)O)c2)ccc1OC(=O)c1ccccc1F,IC50,[11],4.45 µM (active)
same,AC50,[12],5.62 µM (active)
same,IC50,[13],1.06 µM (active)
